# Assay results published in US8318753B2, “Farnesyl transferase inhibiting 1,2-annelated quinoline enantiomer” (Janssen Pharmaceutica NV, priority 2000, dated 2012).
# How the values were obtained:
# [1] = molecular target: farnesyl protein transferase (FPTase) (Homo sapiens, UniProt P49354+P49356); assay: In vitro assay for inhibition of farnesyl protein transferase; type: biochemical; settings: essentially as described in WO 98/40383, pages 33-34, read-out: IC50 FPTase inhibitory activity
# Procedure: In Vitro Assay for Inhibition of Farnesyl Protein Transferase
# An in vitro assay for inhibition of farnesyl protein transferase was performed essentially as described in WO 98/40383, pages 33-34.
melting point [°C],IC50 [1] [nM],SMILES
178 to 180,0.7,"Cn1cncc1C(N)(c1ccc(Cl)cc1)c1ccc2c(c1)c(-c1cccc(Cl)c1)nc1nnnn12 (single isomer, unassigned; (-)) [(−) enantiomer, (−)-5-(3-chlorophenyl)-α-(4-chlorophenyl)-α-(1-methyl-1H-imidazol-5-yl)tetrazolo[1,5-a]quinazoline-7-methanamine]"
–,1.1,"Cn1cncc1C(N)(c1ccc(Cl)cc1)c1ccc2c(c1)c(-c1cccc(Cl)c1)nc1nnnn12 (racemic) [parent enantiomeric mixture, (±)-5-(3-chlorophenyl)-α-(4-chlorophenyl)-α-(1-methyl-1H-imidazol-5-yl)tetrazolo[1,5-a]quinazoline-7-methanamine, reference compound]"
